The values that follow come from publication PMC8125995, “In Vitro Antiplasmodial and Cytotoxic Activities of Compounds from the Roots of Eriosema montanum Baker f. (Fabaceae)” (Molecules, 2021).

In brackets after ≈: the same amount, converted by molar mass. Like-named read-outs stand apart in the source and are kept apart here. A value given as a limit tells only on which side of the number the result lay.

Series [1] relates to 3D7 strain of Plasmodium falciparum. Description: In vitro antiplasmodial activity (SYBR Green, 48 h). It is filed as cell-based. Particulars: read-out: Antiplasmodial Activity IC50. Here is the method: Continuous in vitro cultures of asexual erythrocyte stages of P. falciparum, chloroquine-sensitive 3D7 strain was maintained according to the procedure of Trager and Jensen. Strains were obtained from ATCC, Bei Resources. The host cells were human red blood cells (A+). […] Compound stock solutions were prepared in DMSO at 10 mg/mL (for an extract) and 1 mg/mL (for an isolated compound). Then, the solution is directly diluted in the medium; each test sample was applied in a series of eight 2-fold dilutions in a 96-well plate, starting with 100 µg/mL and 10 µg/mL for the crude extract and purified compounds, respectively, and tested in triplicate. The effect of compounds on the parasite growth was estimated, after 48 h incubation, by using the SYBR Green, a DNA intercalating compound. Artemisinin (Sigma-Aldrich, Machelen, Belgium), at an initial concentration of 100 ng/mL, was used as positive control in all experiments. The half-maximal inhibitory concentration (IC50) values were calculated from graphs.

Series [2] is described as follows: Cytotoxicity, Cell Titer-Glo Luminescent Cell Viability Assay. It is filed as cell-based. Particulars: human. As to the method:
(§1) The cytotoxic effect of the crude extract and compounds thereof on THP-1 human acute leukemia cell line was carried using the Cell Titer-Glo Luminescent Cell Viability Assay (Promega). […] Cells were then incubated in the presence or absence of tested compounds for 3 days at 37 °C in a humidified 5% CO2 atmosphere in a 96-wells plate at a cell density of two thousand cells/well. The cell viability was then evaluated using Cell Titer-Glo Luminescent Cell Viability Assay (Promega) according to the manufacturer’s instructions.
On the technique in general: In ATP-based viability assays light output follows the ATP content of the culture.

Series [3] concerns different cell lines. The arrangement: method as in doi:10.1016/j.phytol.2020.10.005. To be noted: cited from earlier work.
Series [4] relates to THP-1 human acute leukemia cell line. Briefly: Cytotoxicity, Cell Titer-Glo Luminescent Cell Viability Assay. The series is classed as cell-based. To be noted: 3 days. Here is the method:
as §1

Details of series [5]: method as in PMID 21872416. Particulars: antiplasmodial activity; read-out: reported IC50; cited from earlier work.
The mark [6] stands for this setting: chloroquine-sensitive 3D7 strain, 48 h incubation, SYBR Green, mean ± S.D. of two, three or four independent experiments.

Broadly, the IC50 is the concentration at which inhibition is half-maximal. Broadly, the CC50 is the concentration giving 50% cytotoxicity.

Consider `C[C@@H]1CC[C@H]2[C@@H](C)C(=O)O[C@@H]3O[C@@]4(C)CC[C@@H]1[C@]32OO4` [Artemisinin, reference compound], for which the IC50 in series [1] (setting [6]) was determined as 0.0067 ± 0.003 µg/mL (≈ 0.0237 µM).
Compound `O=C(O)C[C@](O)(Cc1ccc(O)cc1)C(=O)O` [Compound 1, eucomic acid] yielded a CC50 at 3 days in series [2] (Cytotoxic Activity CC50) of 375 ± 97.3 µg/mL (≈ 1560 µM). For the same compound, the CC50 in series [3] was more than 100 µM. Also, in series [1] (setting [6]), the IC50 was found to be 0.057 ± 0.031 µg/mL (≈ 0.237 µM).
In the case of `COc1cc(OC2OC(CO)C(O)C(O)C2O)cc2occ(-c3ccc(O)cc3)c(=O)c12` (stereo not shown) [Compound 2, 7-O-glucopyranosyl-isoprunetin], in series [2] (Cytotoxic Activity CC50), the CC50 at 3 days was 322 ± 20.6 µg/mL (≈ 721 µM). Also, the IC50 in series [1] (setting [6]) amounted to 0.113 ± 0.074 µg/mL (≈ 0.253 µM).
As to `O=c1c(-c2ccc(O)cc2)coc2cc(O[C@@H]3O[C@H](CO)[C@@H](O)[C@H](O)[C@H]3O)cc(O)c12` [Compound 3, genistin], the “Cytotoxic Activity CC50” value in series [4] is 196.3 ± 44.5 µg/mL. Also, in series [2] (Cytotoxic Activity CC50), the CC50 at 3 days came out at 169 µg/mL (≈ 390 µM). The IC50 in series [1] (setting [6]) was 7.87 ± 1.72 µg/mL (≈ 18.2 µM).
Taken in the same sequence, the figures for `O=C(O)CC(=O)OC[C@H]1O[C@@H](Oc2cc(O)c3c(=O)c(-c4ccc(O)cc4)coc3c2)[C@H](O)[C@@H](O)[C@@H]1O` [Compound 4, malonyl genistin] were 223.3 ± 58.6 µg/mL, 182 µg/mL (≈ 351 µM) and more than 10 µg/mL.
For the compound `COc1cc(O)cc2occ(-c3ccc(O)cc3)c(=O)c12` [Compound 5, isoprunetin], the CC50 at 3 days in series [2] (Cytotoxic Activity CC50) came to 221 ± 33.3 µg/mL (≈ 778 µM). Besides, in series [1] (setting [6]), the IC50 stood at 0.042 µg/mL (≈ 0.148 µM).
The matching figures for `O=c1c(-c2ccc(O)c(O)c2)coc2cc(O)cc(O)c12` [Compound 6, Isoluteolin]: 243 ± 73 µg/mL (≈ 848 µM) and 0.121 ± 0.048 µg/mL (≈ 0.423 µM).
As to `O=c1c(-c2ccc(O)cc2)coc2cc(O)cc(O)c12` [Compound 7, genistein], the CC50 at 3 days in series [2] (THP-1 cells, 3 days incubation, read-out: Cytotoxic Activity CC50) was 116 µg/mL (≈ 430 µM). In addition, the IC50 in series [1] (3D7, 48 h) was 7.74 ± 0.802 µg/mL (≈ 28.6 µM).
Regarding `O=C(O)CC(O)C(=O)O` (stereo not shown) [Malic acid, malic acid], the IC50 in series [5] is more than 10 µM.
